Measurements as given in patent publication US20170128518A1, “METHODS AND MATERIALS FOR IDENTIFYING AND TREATING MAMMALS RESISTANT TO PROTEASOME INHIBITOR TREATMENTS” (Mayo Foundation for Medical Education and Research, priority 2014, published 2017).
Entries after “also recorded” stand apart in the source; their conditions may differ.

Experiments:
BCWM.1 cells [1] = test: Mitochondrial outer membrane permeability (TMRM), BCWM.1; type: cell-based, human
Method: FIG. 19 is a pair of histograms showing MOMP in representative WM models±b-AP15 treatment (BCWM.1 and BCWM.1/BR cells; one WT with its respective BR subclone). Black histogram represents control. Lines represent a shift in MOMP.
Cells were treated with different agents for 48 hours and assessed for MOMP using tetramethylrhodamine methyl ester [TMRM] (Life Technologies). TMRM was directly added to the cell cultures at 100 nmol/1 concentrations and incubated at 37° C. in the dark for 15 minutes. At the end of the incubation, cells were washed twice with cold PBS containing 2% FBS and analyzed. The cells were washed for fluorescence (FL2) and analyzed by BD Accuri, the C6 flow cytometer and its software. Data from at least 20,000 events per sample were collected and analyzed. TMRM-negative (%) cells were calculated to determine % MOMP.

BCWM.1/BR cells = test: Annexin-V apoptosis assay, BCWM.1/BR; type: cell-based, human
Method: (§1) FIG. 18 is a series of representative heat density plots showing Annexin-V staining in BCWM.1 and BCWM.1/BR±b-AP15 treatment, indicating about 46% cell death in BCWM.1 cells (top panels) and about 42% cell death in BCWM.1/BR cells (bottom panels).
(§2) Apoptosis was measured using the Annexin V binding assay kit from BD Biosciences according to the manufacturer's instructions. Briefly, at the end of the treatment, cells were washed with PBS and 1×10^6 cells were re-suspended in 100 μl of binding buffer. Fluorescein isothiocycanate (FITC)-labelled Annexin V (5 μl) and propidium iodide (10μ were added to each sample and incubated in the dark for 15 minutes at room temperature. The cells were subsequently analyzed by flow cytometry using BD Accuri, the C6 flow cytometer and its software. Data from 10,000 events per sample were collected and analyzed.

BCWM.1/BR = test: MTS viability assay, BCWM.1/BR; type: cell-based, human; conditions: 72-h MTS assay
Method: FIGS. 4A-4D show the characterization of BR WM models, established by subjecting WM cancer cell lines (n=3) chronic drug exposure. […] FIG. 4C is a graph plotting relative fluorescence units in an assay to examine PSMB5 enzyme function by flow cytometry.
Twenty thousand cells/200 μl in quadruplicates were incubated with serially diluted b-AP15 (1-1000 nmol/l) in 96-well plates at 37° C. for 72 hours. MTS (3-(4,5-dimethylthiazol-2-yl)-5-(3-carboxymethoxyphenyl)-2-(4-sulfophenyl)-2H-tetrazolium) reagent (Molecular Probes, Eugene, Oreg.) was added at 40 μl/well and the plates were further incubated at 37° C. for 3 hours and the developed color was read at 490 nm using a BioTek synergy HT plate reader against blanks with no cells.

BCWM.1 cells [2] = test: Annexin-V apoptosis assay, BCWM.1; type: cell-based, human
Method: as §1, §2

[3] = test system: CD19+/CD138+ WM cells from human patients; test: Annexin-V apoptosis assay, primary patient-derived WM cells; type: cell-based
Method: (§3) FIGS. 12A-12D are a series of graphs and Western blots showing b-AP15 induction of tumor-specific apoptosis in WM cell lines and primary patient-derived WM cells. FIG. 12A is a graph plotting cell death as a percentage of control cell death for all available WM cell lines (n=6, WT and BR derivatives) after treatment with the indicated concentrations of b-AP15, followed by staining with annexin-V and propidium iodide and then flow cytometry to examine apoptosis. […] Each experiment was conducted a minimum of three times with control cells (no drug treatment) showing a viability ([…] and propidium iodide-negative population) of >85%. Following treatment, the percentage of cells affected by b-AP15 was calculated by normalizing data from treated cells relative to the control (untreated) cells. […]
as §2, with “Briefly, at the end of the treatment, cells were washed with PBS and 1×10^6 cells were re-suspended in 100 μl of binding buffer.” left out

[4] = test system: WM cell lines (WT and BR); test: Annexin-V apoptosis assay, WM cell lines; type: cell-based, human; conditions: 0.64 μmol/l, 12 hours
Method: as §3
as §2, with “Briefly, at the end of the treatment, cells were washed with PBS and 1×10^6 cells were re-suspended in 100 μl of binding buffer.” left out

[5] = biological target: T1, proteasome b1 subunit (caspase-like activity) (Homo sapiens, UniProt P28072); test: Proteasomal activity assay, caspase-like (LLE-AMC), WM cells; type: biochemical; conditions: 10 nM; BCWM.1 and BCWM.1/BR shown
T1 construct: Cells were lysed at 4×10^6 cells/ml in proteasomal activity assay buffer; endogenous in cells; host or cells: BCWM.1 and BCWM.1/BR (lysates)
T1 sequence (P28072 whole entry): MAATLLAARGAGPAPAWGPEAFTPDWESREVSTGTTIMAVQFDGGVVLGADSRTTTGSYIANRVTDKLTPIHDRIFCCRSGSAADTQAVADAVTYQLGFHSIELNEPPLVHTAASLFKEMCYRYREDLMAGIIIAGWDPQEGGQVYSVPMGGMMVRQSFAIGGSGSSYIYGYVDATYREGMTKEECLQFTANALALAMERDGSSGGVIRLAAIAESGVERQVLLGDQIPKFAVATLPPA
Method: FIGS. 17A-17D are a series of graphs plotting the effects of bortezomib (10 nM), carfilzomib (10 nM) and b-AP15 (10 nM) on caspase-like and trypsin-like proteasomal activities, as assessed in three WT and three BR WM cell lines in vitro using the fluorogenic substrates LLE-AMC (caspase-like activity) and LRR-AMC (trypsin-like activity). Reactions were incubated at 37° C. for 1 hour and the fluorescence was measured at 360/460 and expressed as relative fluorescence units (RFU), using BioTek synergy HT plate reader. Data from two representative cell lines (BCWM.1 and its BR subclone) are shown.
Cells were lysed at 4×10^6 cells/ml in proteasomal activity assay buffer [assay buffer; 25 mmol/1 HEPES buffer, pH7.5 containing 0.5 mmol/1 EDTA, 0.05% Nonidet P-40, 0.01% sodium dodecyl sulfate (SDS)] and immediately used in the assay. Enzyme reactions were performed in 96-well plates with 100 μl of final volume containing […] fluorogenic peptide substrates. The substrates used were LLVY-AMC for chymotrypsin like activity, LLE-AMC for caspase-like activity and LRR-AMC for trypsin-like activity. Reactions were incubated at 37° C. for 1 hour and fluorescence was measured at 360/460 using a BioTek synergy HT plate reader (BioTek, Winooski, Vt.).

## C=CC(=O)N1C/C(=C\c2ccc([N+](=O)[O-])cc2)C(=O)/C(=C/c2ccc([N+](=O)[O-])cc2)C1 [b-AP15]
BCWM.1 cells [1]
  increase in MOMP: 57%
BCWM.1/BR cells
  cell death (Annexin-V staining): about 42%
BCWM.1/BR
  IC50: 16 nM
BCWM.1 cells [2]
  cell death (Annexin-V staining): about 46%
[3]; 0.5 μmol/l, 12 hours
  apoptosis (annexin-V positivity): Significant annexin-V positivity; also recorded: Robust apoptotic cell death
[3]; 1 μmol/l
  cells undergoing total loss of viability: > 90%
[4]
  WM cells experiencing apoptosis: approximately 50%
[5]
  caspase-like proteasomal activity: no change in caspase-like activity
